Square brackets hold non-standard residues; d marks the D form. Ends that are not written are not given here.
Experiments:
[1] = system: cells; experiment: Standard cell attachment assay; type: cell-based; parameters: key: + = positive cell attachment; - = no cell attachment; details: for CELL ATTACHMENT ASSAY RESULTS, SODIUM PERIODATE: peptide coupled to HA by sodium periodate method; for CELL ATTACHMENT ASSAY RESULTS, TRESYL CHLORIDE: peptide coupled to HA by tresyl chloride method; for CELL ATTACHMENT ASSAY RESULTS, BDDE: peptide coupled to HA by epoxide (BDDE) method
Method: The conjugates prepared by the above described methods, as well as conjugates containing other RGD-peptide sequences, were tested for cell attachment using the following procedures.
New subcultures are made the day before the assay and allowed to grow to 75-80% confluency. When a 100×20 mm dish was 80-90% confluent the cells were detached by adding 4 ml of trypsin/EDTA. When the cells become rounded they are suspended by adding 6 ml of complete media to the 4 ml of trypsin/EDTA (10 ml total). Forty to fifty percent of the cell suspensions were transferred to a new 100×20 mm dish and cultured as usual. One 100×20 mm dish is sufficient to perform 6 cell attachments.
Samples to be tested are placed in 0.5 ml blocking solution (HBSS, 3% BSA, 25 mM Hepes pH 7.0) until needed. Each 100×20 mm dish was trypsinized using 4 ml of trypsin/EDTA for approximately 10 minutes or until cells were easily detached. Cells should not be detached too soon or they will remain aggregated during the cell attachment assay. It is desirable to obtain a good single cell suspension. If clumps of cells are observed let them settle out before using and adjust for the loss of cells in the assay.
The cells were detached from the plate using 6 ml of serum free media (SFM) supplemented with ITS+ (Insulin Transferrin Selenium (Collaborative Research, Inc., Bedford, Mass.), SFM+ITS+=SFM+) for a total volume of 10 ml (4 ml of trypsin/EDTA+6 ml of SFM+). The cells were centrifuged one time to pellet the cells and then they were resuspended in 5 ml of soybean trypsin inhibitor (SBTI) diluted in SFM+. The cells were incubated in SBTI/SFM+ for 10 minutes in a 37° C. water bath. While trypsin was being inactivated, the blocking buyer was removed and the samples suspended in 1 ml of SFM+.
Cells were centrifuged 1 time to remove SBTI. Resuspended cells in 6 ml of SFM+ created a good single cell suspension. If necessary, the resuspended cells can sit on the bench for 5 minutes to let aggregates settle to the bottom before applying to the matrices. Approximately 1 ml of cell suspension per matrix (1-2 mg) was used. The matrix/cells were placed on a rocker in the incubator and cell attachment allowed to go for one to one and half hours. Thereafter, samples were transferred to a 12 well dish and washed 2 times with PBS using an orbital shaker. Neutral red solution (diluted 1:100) was added to PBS and incubated with the cells for 20 minutes on an orbital shaker. Two mls of stain/fix (PBS, 8% formaldehyde, crystal violet 0.0008%) was added and staining allowed to proceed for 2 hours at room temperature on the orbital shaker. Formaldehyde solution was removed and distilled water added. Cell attachment was assessed by microscopy.

[2] = system: full thickness wounds in guinea pigs; experiment: Full thickness wounds in guinea pigs; type: in vivo, guinea pig; details: Alcian staining; for residence time in the wound bed: Epoxide (BDDE) method; for residence time: Sodium periodate method; for residence time in the dermal wound: Tresyl chloride method, BDDE cross-linked HA created at pH 6
Method: Following the procedures for the full thickness wound model in guinea pigs described in Cheng et al., Arch. Dermatol. 124:221-226 (1988), which is incorporated herein by reference, various peptide-HA conjugates prepared by the above-described methods were analyzed.
The residence times were determined by Alcian staining and were as follows: […]

Row | Substance | CELL ATTACHMENT ASSAY RESULTS, SODIUM PERIODATE [1] | CELL ATTACHMENT ASSAY RESULTS, TRESYL CHLORIDE [1] | CELL ATTACHMENT ASSAY RESULTS, BDDE [1] | residence time in the wound bed [2] | residence time [2] | residence time in the dermal wound [2]
1 | Ac G R R R R R G G G R G D I P KNH2 (Ac-GRRRRRGGGRGDIPK-NH2; also: hyaluronate conjugate) [SEQ ID No. 13, RGD peptide, tested conjugated to hyaluronate (HA)] | + | + |  |  |  | 
2 | Ac G dR dR dR dR dR G G G dR G D S P A S S K (Ac-G[dR][dR][dR][dR][dR]GGG[dR]GDSPASSK; also: hyaluronate conjugate) [SEQ ID No. 5, RGD peptide, tested conjugated to hyaluronate (HA)] | + |  | + | 7 to 10 days | 7 to 10 days | 10 to 14 days
3 | Ac R R G R G D I P KNH2 (Ac-RRGRGDIPK-NH2; also: hyaluronate conjugate) [SEQ ID No. 14, RGD peptide, tested conjugated to hyaluronate (HA)] | - | + |  |  |  | 
4 | Ac R R R G G R G D I P KNH2 (Ac-RRRGGRGDIPK-NH2; also: hyaluronate conjugate) [SEQ ID No. 6, RGD peptide, tested conjugated to hyaluronate (HA)] | - | + | + |  |  | 
5 | G R R G R R G R G D I P TNH2 (GRRGRRGRGDIPT-NH2; also: hyaluronate conjugate) [SEQ ID No. 18, RGD peptide, tested conjugated to hyaluronate (HA)] | + |  | - |  |  | 
6 | G R R G R R G R G D TNH2 (GRRGRRGRGDT-NH2; also: hyaluronate conjugate) [SEQ ID No. 19, RGD peptide, tested conjugated to hyaluronate (HA)] |  |  |  |  | 7 to 10 days | 
7 | G R R R G G G R G D I P TNH2 (GRRRGGGRGDIPT-NH2; also: hyaluronate conjugate) [SEQ ID No. 8, RGD peptide, tested conjugated to hyaluronate (HA)] | - | + | + |  |  | 
8 | G R R R G G R G D I P TNH2 (GRRRGGRGDIPT-NH2; also: hyaluronate conjugate) [SEQ ID No. 9, RGD peptide, tested conjugated to hyaluronate (HA)] | - | + | + |  |  | 
9 | G R R R G G R G D I PNH2 (GRRRGGRGDIP-NH2; also: hyaluronate conjugate) [SEQ ID No. 7, RGD peptide, tested conjugated to hyaluronate (HA)] | - | + | + |  |  | 
10 | G R R R R G G G R G D I P TNH2 (GRRRRGGGRGDIPT-NH2; also: hyaluronate conjugate) [SEQ ID No. 4, RGD peptide, tested conjugated to hyaluronate (HA)] | + | + | + |  |  | 
11 | G R R R R R G G G R G D I PNH2 (GRRRRRGGGRGDIP-NH2; also: hyaluronate conjugate) [SEQ ID No. 12, RGD peptide, tested conjugated to hyaluronate (HA)] | + | + |  |  | 7 to 10 days | 
12 | G R R R R R G G R G D I P TNH2 (GRRRRRGGRGDIPT-NH2; also: hyaluronate conjugate) [SEQ ID No. 3, RGD peptide, tested conjugated to hyaluronate (HA)] | + | + | + |  |  | 
13 | G R R R R R G R G D I P TNH2 (GRRRRRGRGDIPT-NH2; also: hyaluronate conjugate) [SEQ ID No. 2, RGD peptide, tested conjugated to hyaluronate (HA)] | + | + | + |  |  | 
14 | G dR dR dR dR dR G G G dR G D S P A S S K (G[dR][dR][dR][dR][dR]GGG[dR]GDSPASSK; also: hyaluronate conjugate) [SEQ ID No. 1, RGD peptide, tested conjugated to hyaluronate (HA)] | + | + | + | 7 to 10 days | at least 30 days | 10 to 14 days
15 | R R R G R G D I P TNH2 (RRRGRGDIPT-NH2; also: hyaluronate conjugate) [SEQ ID No. 11, RGD peptide, tested conjugated to hyaluronate (HA)] |  |  | + |  |  | 
16 | R R R R G R G D I P TNH2 (RRRRGRGDIPT-NH2; also: hyaluronate conjugate) [SEQ ID No. 10, RGD peptide, tested conjugated to hyaluronate (HA)] | + |  | + |  |  | 

— patent US5677276A, “Immobilization of peptides to hyaluronate” (La Jolla Cancer Research Foundation, priority 1995, dated 1997)
